The source of these data is PubChem BioAssay AID1591 (Sanford-Burnham Center for Chemical Genomics, 2009).

The structures appear in SMILES notation.

The subject of this data set is human plasma stability, LC/MS/MS, 180 min. Put plainly: human plasma degradation, percent remaining – biochemical, LC/MS/MS, 180 min, dry powder, ADME assay, late-stage follow-up (AID 1591). The conditions noted are these: at 1 µM; hits give low values.

With `C=CCn1c(SCC(=O)c2ccc(O)c(O)c2)nnc1-c1ccccc1OC`, the percent remaining is 82.6%.
